# Results from US11168083B2, “Inhibitors of Plasma Kallikrein and uses thereof” (Takeda Pharmaceutical Company Limited, priority 2017, dated 2021).
# Molecular target: human activated kallikrein enzyme (Homo sapiens (Human), UniProt P03952)
# Assay: Inhibition of human activated kallikrein enzyme, fluorogenic peptide substrate assay (two formats)
# Assay type: biochemical
# Conditions: Table 2; column head prints nM, ranges defined in μM; read-out: pKal EC50
# Protocol: The example compounds were evaluated for inhibition of the human activated kallikrein enzyme in two formats of an assay employing a fluorogenic peptide substrate. In one assay format, the concentrations of reagents were as follows: 20 mM Tris pH 7.5, 1 mM EDTA, 150 mM sodium chloride, 0.1% PEG-400, 0.1% Triton X-100, 500 pM activated kallikrein enzyme, 300 uM Pro-Phe-Arg-7-amido-4-methylcoumarin substrate. Prior to reaction initiation with substrate, enzyme and inhibitors were preincubated for 30 min at room temperature. After initiation with substrate, reactions were incubated for 10 min at room temperature and fluorescence emission at 460 nm from 380 nm excitation measured with a microplate reader. In another assay format, the concentrations of reagents were as follows: 20 mM Tris pH 7.5, 1 mM EDTA, 150 mM sodium chloride, 0.1% PEG-400, 0.1% Triton X-100, 5 pM activated kallikrein enzyme, 300 uM Pro-Phe-Arg-7-amido-4-methylcoumarin substrate. Prior to reaction initiation with substrate, enzyme and inhibitors were preincubated for 30 min at room temperature. After initiation with substrate, reactions were incubated for 18 hr at room temperature and fluorescence emission at 460 nm from 380 nm excitation measured with a microplate reader.
# Sequence of human activated kallikrein enzyme (P03952 391-638): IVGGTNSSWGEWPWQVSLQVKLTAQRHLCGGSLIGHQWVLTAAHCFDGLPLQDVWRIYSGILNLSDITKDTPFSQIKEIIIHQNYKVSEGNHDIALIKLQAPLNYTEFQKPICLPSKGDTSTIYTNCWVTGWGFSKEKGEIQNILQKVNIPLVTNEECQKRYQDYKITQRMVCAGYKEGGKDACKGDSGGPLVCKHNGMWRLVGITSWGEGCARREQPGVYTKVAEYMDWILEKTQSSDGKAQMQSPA
# Sequence of human activated kallikrein enzyme (P03952 20-390 partner): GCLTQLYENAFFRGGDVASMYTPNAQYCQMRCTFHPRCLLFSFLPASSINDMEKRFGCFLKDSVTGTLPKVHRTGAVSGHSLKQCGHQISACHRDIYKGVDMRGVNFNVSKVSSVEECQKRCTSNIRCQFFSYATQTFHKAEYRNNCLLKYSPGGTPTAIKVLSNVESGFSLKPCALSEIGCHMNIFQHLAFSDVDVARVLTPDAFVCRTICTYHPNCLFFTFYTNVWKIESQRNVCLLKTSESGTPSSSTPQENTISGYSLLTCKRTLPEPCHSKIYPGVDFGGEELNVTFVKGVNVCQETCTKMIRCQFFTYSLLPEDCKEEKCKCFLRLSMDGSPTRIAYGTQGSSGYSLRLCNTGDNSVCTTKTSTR
row,EC50,SMILES
1,100 to 1000 nM,"Cc1cc(N)nc(C)c1CNC(=O)c1csc([C@@H]2C[C@@H](N)CN2C(=O)c2cn3cc(Cl)ccc3n2)n1 [Compound 48, 2-((2S,4R)-4-amino-1-(6-chloroimidazo[1,2-a]pyridine-2-carbonyl)pyrrolidin-2-yl)-N-((6-amino-2,4-dimethylpyridin-3-yl)methyl)thiazole-4-carboxamide]"
2,100 to 1000 nM,"CNC(=O)[C@H](CCCCNC(=N)N)NC(=O)c1csc([C@@H]2C[C@@H](N)CN2C(=O)c2cc3cc(C(F)(F)F)ccc3s2)n1 [Compound 64, 2-((2S,4R)-4-amino-1-(5-(trifluoromethyl)benzo[b]thiophene-2-carbonyl)pyrrolidin-2-yl)-N—((S)-6-guanidino-1-(methylamino)-1-oxohexan-2-yl)thiazole-4-carboxamide]"
3,100 to 1000 nM,"CNC(=O)[C@H](CCCCNC(=N)N)NC(=O)c1csc([C@@H]2C[C@@H](N)CN2C(=O)c2cc3ccc(Cl)cc3s2)n1 [Compound 62, 2-((2S,4R)-4-amino-1-(6-chlorobenzo[b]thiophene-2-carbonyl)pyrrolidin-2-yl)-N—((S)-6-guanidino-1-(methylamino)-1-oxohexan-2-yl)thiazole-4-carboxamide]"
4,> 9900 nM,"CNC(=O)[C@@H](CCCCNC(=N)N)NC(=O)c1csc([C@@H]2CCCN2C(=O)c2cn3cc(Cl)ccc3n2)n1 [Compound 34, 2-((S)-1-(6-Chloroimidazo[1,2-a]pyridine-2-carbonyl)pyrrolidin-2-yl)-N—((R)-6-guanidino-1-(methylamino)-1-oxohexan-2-yl)thiazole-4-carboxamide]"
5,≤ 100 nM,"Nc1nccc2cc(CNC(=O)c3csc([C@@H]4C[C@@H](N)CN4C(=O)c4cn5cc(Cl)ccc5n4)n3)ccc12 [Compound 49, 2-((2S,4R)-4-amino-1-(6-chloroimidazo[1,2-a]pyridine-2-carbonyl)pyrrolidin-2-yl)-N-((1-aminoisoquinolin-6-yl)methyl)thiazole-4-carboxamide]"
6,≤ 100 nM,"N=C(N)c1ccc(CNC(=O)c2csc([C@@H]3C[C@@H](N)CN3C(=O)c3cn4cc(Cl)ccc4n3)n2)cc1 [Compound 47, 2-((2S,4R)-4-amino-1-(6-chloroimidazo[1,2-a]pyridine-2-carbonyl)pyrrolidin-2-yl)-N-(4-carbamimidoylbenzyl)thiazole-4-carboxamide]"
7,100 to 1000 nM,"N=C(N)NCCCCCNC(=O)c1csc([C@@H]2C[C@@H](N)CN2C(=O)c2cn3cc(Cl)ccc3n2)n1 [Compound 46, 2-((2S,4R)-4-amino-1-(6-chloroimidazo[1,2-a]pyridine-2-carbonyl)pyrrolidin-2-yl)-N-(5-guanidinopentyl)thiazole-4-carboxamide]"
8,> 9900 nM,"CNC(=O)[C@H](CCCCNC(=N)N)NC(=O)c1csc([C@@H]2C[C@@H](O)CN2C(=O)c2cn3cc(Cl)ccc3n2)n1 [Compound 38, 2-((2S,4R)-1-(6-Chloroimidazo[1,2-a]pyridine-2-carbonyl)-4-hydroxypyrrolidin-2-yl)-N—((S)-6-guanidino-1-(methylamino)-1-oxohexan-2-yl)thiazole-4-carboxamide]"
9,≤ 100 nM,"CNC(=O)[C@H](CCCCNC(=N)N)NC(=O)c1csc([C@@H]2C[C@@H](N)CN2C(=O)c2cn3cc(C(F)(F)F)ccc3n2)n1 [Compound 19, 2-((2S,4R)-4-amino-1-(6-(trifluoromethyl)imidazo[1,2-a]pyridine-2-carbonyl)pyrrolidin-2-yl)-N—((S)-6-guanidino-1-(methylamino)-1-oxohexan-2-yl)thiazole-4-carboxamide]"
10,> 9900 nM,"CNC(=O)[C@H](Cc1c[nH]cn1)NC(=O)c1csc([C@@H]2C[C@@H](N)CN2C(=O)c2cn3cc(Cl)ccc3n2)n1 [Compound 30, N—((S)-3-(1H-imidazol-4-yl)-1-(methylamino)-1-oxopropan-2-yl)-2-((2S,4R)-4-amino-1-(6-chloroimidazo[1,2-a]pyridine-2-carbonyl)pyrrolidin-2-yl)thiazole-4-carboxamide]"
11,100 to 1000 nM,"N[C@@H]1C[C@@H](c2nc(C(=O)NCc3ncn4ccc(Cl)cc34)cs2)N(C(=O)c2cn3cc(Cl)ccc3n2)C1 [Compound 55, 2-((2S,4R)-4-amino-1-(6-chloroimidazo[1,2-a]pyridine-2-carbonyl)pyrrolidin-2-yl)-N-((7-chloroimidazo[1,5-a]pyridin-1-yl)methyl)thiazole-4-carboxamide]"
12,≤ 100 nM,"N=C(N)NCCCC[C@H](NC(=O)c1csc([C@@H]2C[C@@H](N)CN2C(=O)c2cn3cc(Cl)ccc3n2)n1)C(N)=O [Compound 22, 2-((2S,4R)-4-amino-1-(6-chloroimidazo[1,2-a]pyridine-2-carbonyl)pyrrolidin-2-yl)-N—((S)-1-amino-6-guanidino-1-oxohexan-2-yl)thiazole-4-carboxamide]"
13,> 9900 nM,"CNC(=O)[C@H](CCCCNC(=N)N)NC(=O)c1csc([C@H]2C[C@@H](NC(C)=O)CN2C(=O)c2cn3cc(Cl)ccc3n2)n1 [Compound 5, 2-((2R,4R)-4-acetamido-1-(6-chloroimidazo[1,2-a]pyridine-2-carbonyl)pyrrolidin-2-yl)-N—((S)-6-guanidino-1-(methylamino)-1-oxohexan-2-yl)thiazole-4-carboxamide]"
14,> 9900 nM,"N[C@@H]1C[C@@H](c2nc(C(=O)NCc3ccc4cc(Cl)ccc4c3)cs2)N(C(=O)c2cn3cc(Cl)ccc3n2)C1 [Compound 56, 2-((2S,4R)-4-amino-1-(6-chloroimidazo[1,2-a]pyridine-2-carbonyl)pyrrolidin-2-yl)-N-((6-chloronaphthalen-2-yl)methyl)thiazole-4-carboxamide]"
15,> 9900 nM,"CNC(=O)[C@H](CCCCNC(=N)N)NC(=O)c1csc([C@@H]2C[C@@H](N)CN2C(=O)c2cn(C)c(C)n2)n1 [Compound 14, 2-((2S,4R)-4-amino-1-(1,2-dimethyl-1H-imidazole-4-carbonyl)pyrrolidin-2-yl)-N—((S)-6-guanidino-1-(methylamino)-1-oxohexan-2-yl)thiazole-4-carboxamide]"
16,> 9900 nM,"CNC(=O)[C@@H](CCCCNC(=N)N)NC(=O)c1csc([C@H]2CCCN2C(=O)c2cn3cc(Cl)ccc3n2)n1 [Compound 4, 2-((R)-1-(6-Chloroimidazo[1,2-a]pyridine-2-carbonyl)pyrrolidin-2-yl)-N—((R)-6-guanidino-1-(methylamino)-1-oxohexan-2-yl)thiazole-4-carboxamide]"
17,5000 to 9900 nM,"CNC(=O)[C@H](CCCCNC(=N)N)NC(=O)c1csc([C@@H]2C[C@@H](N)CN2C(=O)c2ccc3c(Cl)csc3c2)n1 [Compound 43, 2-((2S,4R)-4-amino-1-(3-chlorobenzo[b]thiophene-6-carbonyl)pyrrolidin-2-yl)-N—((S)-6-guanidino-1-(methylamino)-1-oxohexan-2-yl)thiazole-4-carboxamide]"
18,> 9900 nM,"CNC(=O)[C@H](CCCCNC(=N)N)NC(=O)c1csc([C@H]2C[C@H](O)CN2C(=O)c2cn3cc(Cl)ccc3n2)n1 [Compound 7, 2-((2R,4S)-1-(6-Chloroimidazo[1,2-a]pyridine-2-carbonyl)-4-hydroxypyrrolidin-2-yl)-N—((S)-6-guanidino-1-(methylamino)-1-oxohexan-2-yl)thiazole-4-carboxamide]"
19,≤ 100 nM,"N=C(N)NCCCC[C@H](NC(=O)c1csc([C@@H]2C[C@@H](N)CN2C(=O)c2cn3cc(Cl)ccc3n2)n1)C(=O)O [Compound 23, N^2-(2-((2S,4R)-4-amino-1-(6-chloroimidazo[1,2-a]pyridine-2-carbonyl)pyrrolidin-2-yl)thiazole-4-carbonyl)-N6-carbamimidoyl-L-lysine]"
20,1000 to 5000 nM,"CNC(=O)[C@@H](CCCCNC(=N)N)NC(=O)c1csc([C@@H]2C[C@@H](N)CN2C(=O)c2cc3cc(Cl)ccc3s2)n1 [Compound 57, 2-((2S,4R)-4-amino-1-(5-chlorobenzo[b]thiophene-2-carbonyl)pyrrolidin-2-yl)-N—((R)-6-guanidino-1-(methylamino)-1-oxohexan-2-yl)thiazole-4-carboxamide]"
21,100 to 1000 nM,"CNC(=O)[C@H](CCCCNC(=N)N)NC(=O)c1csc([C@@H]2C[C@@H](N)CN2C(=O)c2ccc3ncc(Cl)cc3c2)n1 [Compound 41, 2-((2S,4R)-4-amino-1-(3-chloroquinoline-6-carbonyl)pyrrolidin-2-yl)-N—((S)-6-guanidino-1-(methylamino)-1-oxohexan-2-yl)thiazole-4-carboxamide]"
22,> 9900 nM,"CNC(=O)[C@@H](CCCCNC(=N)N)NC(=O)c1csc([C@H]2C[C@@H](N)CN2C(=O)c2cn3cc(Cl)ccc3n2)n1 [Compound 2, 2-((2R,4R)-4-amino-1-(6-chloroimidazo[1,2-a]pyridine-2-carbonyl)pyrrolidin-2-yl)-N—((R)-6-guanidino-1-(methylamino)-1-oxohexan-2-yl)thiazole-4-carboxamide]"
23,> 9900 nM,"CNC(=O)[C@H](CCC(N)=O)NC(=O)c1csc([C@@H]2C[C@@H](N)CN2C(=O)c2cn3cc(Cl)ccc3n2)n1 [Compound 29, (S)-2-(2-((2S,4R)-4-amino-1-(6-chloroimidazo[1,2-a]pyridine-2-carbonyl)pyrrolidin-2-yl)thiazole-4-carboxamido)-N1-methylpentanediamide]"
24,≤ 100 nM,"CNC(=O)[C@H](CCCCNC(=N)N)NC(=O)c1csc([C@@H]2C[C@@H](N)CN2C(=O)c2cn3cc(I)ccc3n2)n1 [Compound 21, 2-((2S,4R)-4-amino-1-(6-iodoimidazo[1,2-a]pyridine-2-carbonyl)pyrrolidin-2-yl)-N—((S)-6-guanidino-1-(methylamino)-1-oxohexan-2-yl)thiazole-4-carboxamide]"
